Assay results reported in patent publication US20020165119A1, “Method of treating inflammatory conditions by inhibiting cytosolic phospholipase A2” (priority 2001, published 2002).
Entries after “also recorded” stand apart in the source; their conditions may differ. Numbered stars: 1 amine (or outer) side, 2 acyl side, 3 side chain; on linkers, the order of the positions; unused ones are H or OH. Bridge positions count the residues as written; N and C are the ends. Square brackets hold non-standard residues; d marks the D form. Peptide text beside a SMILES is read from it. X1 = CC(C)CCCCCCCCC[C@H](CC(=O)[*:1])O[*:2]

Assays:
[1] = test system: OA-sensitized guinea pigs; assay: Bronchoalveolar lavage cell counts after antigen challenge; assay type: in vivo, guinea pig; conditions: for eosinophil count in BAL fluid: after ovalbumin challenge; for BAL eosinophils: 24 h after OA-challenge; for airway eosinophil influx after antigen challenge: guinea pig, in vivo
Procedure: Analysis of Bronchoalveolar Cells
(§1) After assessment of antigen-induced airway hyperresponsiveness or 24 h after IL-5 injection, airway inflammation was assessed. Immediately before and 1, 24, 48, and 72 h after antigen challenge, bronchoalveolar lavage (BAL) was performed to determine the time-course of cellular infiltration into airways. Two aliquots of 10 ml sterile 37° C. saline were infused into the tracheal cannula. The BAL fluid was recovered manually by gentle aspiration with a disposable syringe after each infusion. The total cell number was determined using a Turk solution. Differential cell counts were performed on cytospin preparations (Cytospin 2, Shandon, England) by counting 300 cells after staining by the May-Grüwald-Giemsa method in a single-blind method.

[2] = test system: OA-sensitized guinea pigs; assay: Antigen-induced airway hyperresponsiveness to methacholine (PC200); assay type: in vivo, guinea pig; conditions: for antigen (ovalbumin)-induced methacholine airway hyperresponsiveness: 24 h after OA challenge; for baseline airway responsiveness to methacholine: drug alone
Procedure: (§2) Guinea pigs weighing 200 to 250 g were actively sensitized by a modification of the method reported by Andersson et al., Int. Arch. Allergy Appl. […] Guinea pigs were pretreated with an i.p. injection of 30 mg/kg of cyclophosphamide. Two days later, the animals were immunized with 2.0 mg of ovalbumin and 100 mg of aluminum hydroxide [Al(OH)3]. A booster injection of 10 μg of OA together with 100 mg of Al(OH)3 was given 3 wk after the primary immunization.
Antigen-Induced Airway Hyperresponsiveness to Methacholine
Antigen-induced airway response to methacholine was measured 24 h after challenge. Guinea pigs were anaesthetized by an i.p. injection of 75 mg/kg of sodium pentobarbitone and were placed in a supine position. […] Exp. Path. […] After completion of all surgical procedures, the lungs were overinflated by two times tidal volume for two breaths by closing the outlet port of the respirator. This was done to standardize the volume history of the lungs. […] See Minami et al., Jpn.
Airway responsiveness to inhaled methacholine was expressed as the dose of methacholine required to provoke a 200% increase (PC200) in the Pao. Values for PC200 were logarithmically transformed for analysis and reported as the geometric mean [geometric SEM (GSEM)]. All measurements except for PC200 were expressed as mean±SEM. Variation between three or more groups was analyzed using analysis of variance (ANOVA) followed by Fisher's protected least significant difference. Variation between two groups was tested using Student's t test. A value of p<0.05 was accepted as an indication of statistical significance.

[3] = test system: guinea pigs; assay: IL-5-induced airway eosinophil accumulation (BAL); assay type: in vivo, guinea pig; conditions: for BAL eosinophils: 24 h after IL-5 treatment; for airway eosinophil influx after treatment with IL-5: guinea pig, in vivo
Procedure: IL-5-Induced Airway Eosinophil Accumulation
Guinea pigs weighing 350 to 400 g were treated i.p. before IL-5 injection with TFMK (20 mg/kg), E6123 (0.1 mg/kg), or vehicle (n=7 in each group). Animals were lightly anesthetized with diethyl ether inhalation, and then 200 μl sterile PBS containing 20 ng IL-5 was intranasally injected into the airway.
as §1

[4] = test system: OA-sensitized guinea pigs; assay: Antigen-induced bronchoconstriction: specific airway resistance (sRaw) after ovalbumin challenge; assay type: in vivo, guinea pig; conditions: for sRaw: drug alone; for increase in sRaw caused by OA challenge (immediate bronchoconstriction): pre-treatment i.p. 60 min before antigen challenge
Source text: Male albino Hartley strain guinea pigs were obtained from Sankyou Laboratory Service (Toyama, Japan), and were quarantined in the Animal Research Center of Kanazawa University for 1 wk before study. All animal procedures in this study complied with the standards specified in the Guideline for the Care and Use of Laboratory Animals at the Takara-machi Campus of Kanazawa University.
as §2
Animals were placed in a whole-body, double-chamber plethysmograph for measurement of specific airway resistance (sRaw) by a modification of the method described by Pennock et al., Appl. […] A respiratory mechanics analyzer (model PMUA+SAR, Buxco Electronics, Troy, N.Y.) was used to measure the phase shift between nasal and thoracic airflow and to compute sRaw on a breath by breath basis. A bias flow of air (20 ml/sec) was maintained through the nasal chamber to ensure a constant supply of fresh air to the animal. The analyzer subtracted this flow from its calculations. […] The nebulizer output was 0.14 ml/min. Baseline measurement of sRaw was obtained in all groups 5 min before antigen challenge.

[5] = molecular target: T1, cPLA2 (Homo sapiens, UniProt P47712); conditions: Zhu et al., J. Immunol. 163:3423-3429, 1999; cited from earlier work
T1 sequence (P47712 1-749): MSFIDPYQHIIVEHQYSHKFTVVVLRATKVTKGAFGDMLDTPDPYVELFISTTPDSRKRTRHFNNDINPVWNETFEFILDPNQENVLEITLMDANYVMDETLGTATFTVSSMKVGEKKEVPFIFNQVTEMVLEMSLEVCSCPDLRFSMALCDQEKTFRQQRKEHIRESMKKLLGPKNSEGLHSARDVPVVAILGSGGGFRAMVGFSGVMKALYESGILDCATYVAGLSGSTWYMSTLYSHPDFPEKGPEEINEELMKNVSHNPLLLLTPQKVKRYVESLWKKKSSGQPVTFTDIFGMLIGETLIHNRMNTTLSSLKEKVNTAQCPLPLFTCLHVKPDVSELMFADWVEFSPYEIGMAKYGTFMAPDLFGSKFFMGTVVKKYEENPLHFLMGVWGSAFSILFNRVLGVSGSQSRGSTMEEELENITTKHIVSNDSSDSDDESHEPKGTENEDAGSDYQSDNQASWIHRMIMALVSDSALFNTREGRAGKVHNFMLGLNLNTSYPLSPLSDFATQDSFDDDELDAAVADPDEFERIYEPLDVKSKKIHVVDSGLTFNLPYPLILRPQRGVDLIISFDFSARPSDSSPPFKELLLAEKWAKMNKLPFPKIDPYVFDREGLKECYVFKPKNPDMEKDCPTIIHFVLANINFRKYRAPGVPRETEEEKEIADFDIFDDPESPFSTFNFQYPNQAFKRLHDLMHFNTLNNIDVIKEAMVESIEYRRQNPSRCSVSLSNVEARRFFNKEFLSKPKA

[6] = test system: TXB2 production from whole blood; assay: Effect of i.p. TFMK on TXB2 production ex vivo (FMLP/CB-stimulated whole blood); assay type: in vivo, guinea pig; conditions: FMLP 10^−6 M + 5 μg/ml cytochalasin B; after 20 mg/kg i.p. TFMK
Procedure: Effect of i.p. TFMK on TXB2 Production ex vivo
Sixty min after TFMK (20 mg/kg or vehicle i.p.; n=4 in each group), guinea pigs were anesthetized and heparinized blood (20 U/ml) was obtained via right carotid artery. Duplicate 1-ml aliquots of whole blood were incubated first with 5 μg/ml CB for 2 min and subsequently with 10^−6 M FMLP for 30 additional min at room temperature. Control samples from the same animals were incubated with buffer alone. Immediately after centrifugation, TXB2 was measured by enzyme immunoassay using reagents obtained from Cayman Chemical (Ann Arbor, Mich.).

[7] = test system: bronchial airways; assay: Lung histology after ovalbumin challenge; assay type: in vivo, guinea pig; conditions: 2-20 mg/kg TFMK, 24 h
Source text: After washing with sterile saline, the lung was fixed by perfusion with 10% formalin. Lung sections were stained with hematoxylin and eosin.

| Structure (SMILES) | eosinophil count in BAL fluid [1] | antigen (ovalbumin)-induced methacholine airway hyperresponsiveness [2] | baseline airway responsiveness to methacholine [2] | BAL eosinophils [3] | airway eosinophil influx after treatment with IL-5 [3] | sRaw [4] | increase in sRaw caused by OA challenge (immediate bronchoconstriction) [4] | BAL eosinophils [1] | airway eosinophil influx after antigen challenge [1] | other results |
| --- | --- | --- | --- | --- | --- | --- | --- | --- | --- | --- |
| CC1=C(C)C(=O)C(CCCCC#CCCCC#CCO)=C(C)C1=O [AA-861] | no effect | – | – | – | – | – | – | – | – | – |
| Cc1nnc2n1-c1sc3c(c1C(c1ccccc1Cl)=N[C@H]2C)CCN(C(=O)C1CC1)C3 [E6123] | – | complete blockade | not altered; also recorded: neither drug alone had any effect | 0.4±0.1 ×10^5/ml | dose-dependently blocked | neither drug alone had any effect | not attenuated | 1.6±0.6 ×10^5/ml | dose-dependently blocked | BAL total cell number ([3]; after IL-5 treatment): 3.3±0.4 ×10^5/ml |
| CC(C)CCCCCCCCC[C@@H]1CC(=O)N[C@@H](CCC(=O)O)C(=O)N[C@@H](CC(C)C)C(=O)N[C@H](CC(C)C)C(=O)N[C@@H](C(C)C)C(=O)N[C@@H](CC(=O)O)C(=O)N[C@H](CC(C)C)C(=O)N[C@@H](CC(C)C)C(=O)O1 [Surfactin] (EL[dL]VD[dL]L; linker N-C via X1) | – | – | – | – | – | – | – | – | – | activity of cPLA2 [5]: inhibit or reduce the activity |
| CCCCC/C=C\C/C=C\C/C=C\C/C=C\CCCC(=O)C(F)(F)F [TFMK, arachidonic trifluoromethyl ketone] | – | – | not altered; also recorded: neither drug alone had any effect | 0.7±0.2 ×10^5/ml | dose-dependently blocked | neither drug alone had any effect | not attenuated | 2.1±0.7 ×10^5/ml | dose-dependently blocked | PC200 (provocative concentration of methacholine causing a 200% increase in Pao) ([2]; antigen challenged animals pretreated with 20 mg/kg TFMK, 24 h after challenge, geometric mean (GSEM)): 218 ± 0.08 µg/mL; increase in stimulated TXB2 production from whole blood [6]: 13.5±10.5%; inflammatory cell infiltration in epithelial layer and lamina propria (histology) [7]: blocked cell infiltration progressively |
| CC(C)(C)c1ccc(C(=O)CCCN2CCC(OC(c3ccccc3)c3ccccc3)CC2)cc1 [ebastine] | – | had no effect | – | – | – | – | significantly attenuated | – | – | – |
| COc1ccc2c(c1)c(CC(=O)O)c(C)n2C(=O)c1ccc(Cl)cc1 [indomethacin] | no effect | neither indomethacin, a COX inhibitor, nor AA861, a 5-LO inhibitor, blocked | – | – | – | – | not attenuated | – | – | – |
